For the assay, the target named is T1, D(4) dopamine receptor (Homo sapiens, UniProt P21917).
T1 sequence (P21917 whole entry): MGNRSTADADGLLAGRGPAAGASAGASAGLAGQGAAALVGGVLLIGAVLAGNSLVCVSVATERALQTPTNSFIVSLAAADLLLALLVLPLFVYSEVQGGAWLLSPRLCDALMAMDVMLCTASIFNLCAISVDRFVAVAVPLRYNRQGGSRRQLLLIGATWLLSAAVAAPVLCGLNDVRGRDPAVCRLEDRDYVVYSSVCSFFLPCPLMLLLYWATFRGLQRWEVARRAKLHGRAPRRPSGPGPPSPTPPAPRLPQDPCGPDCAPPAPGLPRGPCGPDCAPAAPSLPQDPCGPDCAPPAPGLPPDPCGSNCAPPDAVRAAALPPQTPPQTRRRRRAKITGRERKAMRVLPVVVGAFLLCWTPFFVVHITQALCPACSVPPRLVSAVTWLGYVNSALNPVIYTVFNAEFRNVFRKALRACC
As to the kind of experiment: Receptor Binding Assay: Determination of binding to D4.4 receptor was performed using [3H]-YM-09151-2 (70-87 Ci/mmol, 0.3 nM), as a radioligand, in the presence of various concentrations of the tested compound. Reactions were carried out in 50 mM TRIS-HCl (pH 7.4) containing 5 mM MgCl2, 5 mM EDTA, 5 mM KCl and 1.5 mM CaCl2, for 60 minutes at 22° C. The reaction was terminated by rapid vacuum filtration onto glass fiber filters.

For `O=c1[nH]c(CN2CCN(c3ccccc3O)CC2)nc2ccccc12`, the IC50 stood at 10 µM.

Values taken from ChEMBL document CHEMBL3886740, “Heterocyclic compounds and uses thereof in the treatment of sexual disorders” (2016).
